The record followed here is ChEMBL document CHEMBL1153452, “Synthesis and in vitro affinities of various MDL 100907 derivatives as potential 18F-radioligands for 5-HT2A receptor imaging with PET” (Bioorg Med Chem, 2009).

SMILES strings stand for the structures. Bounds are passed on as bounds.

Some targets named below: D(1A) dopamine receptor (Homo sapiens, UniProt P21728); D(4) dopamine receptor (Homo sapiens, UniProt P21917); D(1B) dopamine receptor (Homo sapiens, UniProt P21918); Histamine H1 receptor (Homo sapiens, UniProt P35367); Histamine H2 receptor (Homo sapiens, UniProt P25021); Histamine H3 receptor (Homo sapiens, UniProt Q9Y5N1); Mu-type opioid receptor (Homo sapiens, UniProt P35372).

In series [1] the target is 5-hydroxytryptamine receptor 1D (Homo sapiens, UniProt P28221).
Series [2] deals with 5-hydroxytryptamine receptor 2B (Homo sapiens, UniProt P41595).
Series [3] addresses 5-hydroxytryptamine receptor 5A (Homo sapiens, UniProt P47898).
Series [4] concerns the target 5-hydroxytryptamine receptor 6 (Homo sapiens, UniProt P50406).
The nature of a further series: physchem. Conditions: Soerensen buffer.
The target in series [5] is T1, 5-hydroxytryptamine receptor 2A (Rattus norvegicus, UniProt P14842). Nature of the series: biochemical.
The target in series [6] is T2, D(2) dopamine receptor (Homo sapiens, UniProt P14416).
In series [7] the target is Alpha-2C adrenergic receptor (Homo sapiens, UniProt P18825).
In series [8] the target is Beta-3 adrenergic receptor (Homo sapiens, UniProt P13945).
Series [9] addresses Alpha-1A adrenergic receptor (Homo sapiens, UniProt P35348).
The target of series [10] is T3, Alpha-1B adrenergic receptor (Homo sapiens, UniProt P35368).
T3 sequence (P35368 whole entry): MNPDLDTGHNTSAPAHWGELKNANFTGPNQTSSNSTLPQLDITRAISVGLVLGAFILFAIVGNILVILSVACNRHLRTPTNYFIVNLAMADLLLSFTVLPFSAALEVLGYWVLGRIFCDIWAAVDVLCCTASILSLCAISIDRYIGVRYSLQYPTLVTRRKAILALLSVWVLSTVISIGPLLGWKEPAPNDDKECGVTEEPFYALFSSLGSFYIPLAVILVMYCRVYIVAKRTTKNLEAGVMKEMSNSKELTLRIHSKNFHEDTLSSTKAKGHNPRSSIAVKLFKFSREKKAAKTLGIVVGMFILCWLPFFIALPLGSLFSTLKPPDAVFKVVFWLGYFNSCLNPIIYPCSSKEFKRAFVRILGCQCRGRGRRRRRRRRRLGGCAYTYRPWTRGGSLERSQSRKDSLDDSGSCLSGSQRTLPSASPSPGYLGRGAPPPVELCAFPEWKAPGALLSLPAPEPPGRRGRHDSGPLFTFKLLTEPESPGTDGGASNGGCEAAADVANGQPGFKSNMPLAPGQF

The target of series [11] is T4, Alpha-2A adrenergic receptor (Homo sapiens, UniProt P08913).
T4 sequence (P08913 whole entry): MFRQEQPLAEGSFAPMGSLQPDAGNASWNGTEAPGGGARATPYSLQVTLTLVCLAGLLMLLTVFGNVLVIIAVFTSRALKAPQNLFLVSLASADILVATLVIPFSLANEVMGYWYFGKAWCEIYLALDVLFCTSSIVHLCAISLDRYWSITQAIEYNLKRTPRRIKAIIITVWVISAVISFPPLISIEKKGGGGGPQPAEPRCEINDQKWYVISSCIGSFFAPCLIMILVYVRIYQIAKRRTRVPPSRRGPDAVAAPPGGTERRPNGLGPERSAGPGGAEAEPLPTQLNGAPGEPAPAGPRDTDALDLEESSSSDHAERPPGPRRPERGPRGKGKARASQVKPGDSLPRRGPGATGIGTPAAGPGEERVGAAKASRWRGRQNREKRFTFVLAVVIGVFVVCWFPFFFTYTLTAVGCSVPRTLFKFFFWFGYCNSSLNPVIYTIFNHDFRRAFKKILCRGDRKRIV

For series [12], the target named is Sodium-dependent serotonin transporter (Homo sapiens, UniProt P31645).
The target of series [13] is Sodium-dependent dopamine transporter (Homo sapiens, UniProt Q01959).
For series [14], the target named is T1, 5-hydroxytryptamine receptor 2A. Put plainly: Displacement of [3H]altanserine from rat cortical membrane 5HT2A receptor.
Series [15] addresses T2, D(2) dopamine receptor. Nature of the series: Binding affinity to dopamine D2 receptor by competitive binding experiment.

T1 sequence (P14842 whole entry): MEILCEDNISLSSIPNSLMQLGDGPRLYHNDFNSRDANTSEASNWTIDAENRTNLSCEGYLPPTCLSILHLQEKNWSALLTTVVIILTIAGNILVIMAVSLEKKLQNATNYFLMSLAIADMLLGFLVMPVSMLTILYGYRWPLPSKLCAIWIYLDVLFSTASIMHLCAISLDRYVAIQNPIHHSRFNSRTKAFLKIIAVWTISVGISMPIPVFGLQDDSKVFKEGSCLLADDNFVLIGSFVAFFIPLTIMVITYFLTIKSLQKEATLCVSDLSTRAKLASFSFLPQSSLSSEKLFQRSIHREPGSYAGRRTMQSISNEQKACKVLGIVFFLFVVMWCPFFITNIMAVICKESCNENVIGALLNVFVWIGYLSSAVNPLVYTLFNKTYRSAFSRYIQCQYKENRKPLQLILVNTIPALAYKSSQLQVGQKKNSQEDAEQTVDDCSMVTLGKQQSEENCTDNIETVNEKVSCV
Chain of Beta-3 adrenergic receptor (P13945 whole entry): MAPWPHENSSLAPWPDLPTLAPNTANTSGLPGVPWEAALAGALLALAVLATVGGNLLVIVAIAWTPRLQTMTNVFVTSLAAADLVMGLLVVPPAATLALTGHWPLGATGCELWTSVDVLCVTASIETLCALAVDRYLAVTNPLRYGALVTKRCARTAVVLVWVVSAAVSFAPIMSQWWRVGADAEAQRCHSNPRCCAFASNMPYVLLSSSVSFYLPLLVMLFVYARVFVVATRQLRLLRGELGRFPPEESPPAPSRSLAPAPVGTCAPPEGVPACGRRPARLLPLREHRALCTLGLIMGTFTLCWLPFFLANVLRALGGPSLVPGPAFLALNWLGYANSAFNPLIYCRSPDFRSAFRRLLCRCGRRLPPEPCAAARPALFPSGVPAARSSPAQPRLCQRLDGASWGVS
Chain of Histamine H2 receptor (P25021 whole entry): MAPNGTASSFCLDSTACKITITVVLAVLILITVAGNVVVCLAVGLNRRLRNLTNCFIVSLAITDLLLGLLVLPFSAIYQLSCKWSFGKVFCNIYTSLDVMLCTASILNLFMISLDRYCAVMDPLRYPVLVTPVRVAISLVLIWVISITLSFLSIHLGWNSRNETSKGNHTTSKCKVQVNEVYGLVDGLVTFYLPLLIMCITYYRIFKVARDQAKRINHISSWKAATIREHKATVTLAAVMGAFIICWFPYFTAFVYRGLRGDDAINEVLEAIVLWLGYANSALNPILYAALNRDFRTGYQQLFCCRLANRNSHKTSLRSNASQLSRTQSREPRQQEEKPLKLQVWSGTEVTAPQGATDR
Chain of 5-hydroxytryptamine receptor 5A (P47898 whole entry): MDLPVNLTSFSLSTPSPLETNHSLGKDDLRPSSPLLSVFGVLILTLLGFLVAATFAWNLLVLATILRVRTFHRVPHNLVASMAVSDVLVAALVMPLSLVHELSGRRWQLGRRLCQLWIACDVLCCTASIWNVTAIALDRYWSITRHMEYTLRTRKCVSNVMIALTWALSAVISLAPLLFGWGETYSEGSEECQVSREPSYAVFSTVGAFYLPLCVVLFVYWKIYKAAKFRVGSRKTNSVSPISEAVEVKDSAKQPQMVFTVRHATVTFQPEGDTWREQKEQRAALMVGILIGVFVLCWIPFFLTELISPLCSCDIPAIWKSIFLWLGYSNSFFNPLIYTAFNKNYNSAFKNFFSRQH
Chain of 5-hydroxytryptamine receptor 1D (P28221 whole entry): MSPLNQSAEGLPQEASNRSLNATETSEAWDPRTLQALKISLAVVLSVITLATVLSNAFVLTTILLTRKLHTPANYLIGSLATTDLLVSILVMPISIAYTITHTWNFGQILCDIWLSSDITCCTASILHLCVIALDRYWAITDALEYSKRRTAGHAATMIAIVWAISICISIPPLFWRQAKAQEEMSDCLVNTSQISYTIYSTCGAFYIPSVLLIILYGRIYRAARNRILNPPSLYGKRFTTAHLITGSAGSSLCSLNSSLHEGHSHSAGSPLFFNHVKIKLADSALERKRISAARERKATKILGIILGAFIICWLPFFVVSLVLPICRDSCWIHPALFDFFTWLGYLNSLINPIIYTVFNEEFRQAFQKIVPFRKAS
Chain of D(4) dopamine receptor (P21917 whole entry): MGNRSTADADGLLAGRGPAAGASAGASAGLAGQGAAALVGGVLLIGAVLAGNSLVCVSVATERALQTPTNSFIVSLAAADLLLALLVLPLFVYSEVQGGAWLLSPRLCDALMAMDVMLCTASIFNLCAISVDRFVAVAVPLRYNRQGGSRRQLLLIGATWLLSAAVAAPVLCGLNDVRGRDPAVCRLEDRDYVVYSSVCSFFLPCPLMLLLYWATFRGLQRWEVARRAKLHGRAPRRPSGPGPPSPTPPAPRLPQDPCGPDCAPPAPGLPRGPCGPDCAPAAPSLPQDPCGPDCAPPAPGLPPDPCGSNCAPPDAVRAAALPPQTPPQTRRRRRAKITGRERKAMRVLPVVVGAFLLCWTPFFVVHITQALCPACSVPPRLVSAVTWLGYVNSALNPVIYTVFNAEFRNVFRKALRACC
Chain of 5-hydroxytryptamine receptor 2B (P41595 whole entry): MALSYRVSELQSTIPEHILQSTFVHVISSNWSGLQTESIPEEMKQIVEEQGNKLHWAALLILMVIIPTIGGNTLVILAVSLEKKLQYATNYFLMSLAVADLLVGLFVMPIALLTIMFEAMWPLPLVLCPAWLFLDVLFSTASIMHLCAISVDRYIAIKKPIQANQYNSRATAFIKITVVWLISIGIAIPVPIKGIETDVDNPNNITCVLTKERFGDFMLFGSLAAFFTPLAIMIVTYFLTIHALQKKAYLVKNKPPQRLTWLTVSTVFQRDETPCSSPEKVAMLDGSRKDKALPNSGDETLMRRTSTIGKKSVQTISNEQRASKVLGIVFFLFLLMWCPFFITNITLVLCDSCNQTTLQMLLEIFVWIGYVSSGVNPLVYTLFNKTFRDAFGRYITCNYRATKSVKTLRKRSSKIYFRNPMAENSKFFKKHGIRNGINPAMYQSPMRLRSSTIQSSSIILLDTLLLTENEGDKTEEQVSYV
Chain of Mu-type opioid receptor (P35372 whole entry): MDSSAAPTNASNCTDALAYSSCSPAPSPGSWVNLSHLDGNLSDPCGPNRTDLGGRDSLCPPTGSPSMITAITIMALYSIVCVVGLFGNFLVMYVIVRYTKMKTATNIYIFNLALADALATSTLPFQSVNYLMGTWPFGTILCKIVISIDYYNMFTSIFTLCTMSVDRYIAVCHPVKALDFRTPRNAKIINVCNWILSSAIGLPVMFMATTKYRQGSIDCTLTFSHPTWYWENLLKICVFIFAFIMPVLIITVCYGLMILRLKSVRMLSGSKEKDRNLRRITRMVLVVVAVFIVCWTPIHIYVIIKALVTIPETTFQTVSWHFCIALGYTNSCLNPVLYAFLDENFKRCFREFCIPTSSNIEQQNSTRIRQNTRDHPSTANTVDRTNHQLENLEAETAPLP
Chain of D(1A) dopamine receptor (P21728 whole entry): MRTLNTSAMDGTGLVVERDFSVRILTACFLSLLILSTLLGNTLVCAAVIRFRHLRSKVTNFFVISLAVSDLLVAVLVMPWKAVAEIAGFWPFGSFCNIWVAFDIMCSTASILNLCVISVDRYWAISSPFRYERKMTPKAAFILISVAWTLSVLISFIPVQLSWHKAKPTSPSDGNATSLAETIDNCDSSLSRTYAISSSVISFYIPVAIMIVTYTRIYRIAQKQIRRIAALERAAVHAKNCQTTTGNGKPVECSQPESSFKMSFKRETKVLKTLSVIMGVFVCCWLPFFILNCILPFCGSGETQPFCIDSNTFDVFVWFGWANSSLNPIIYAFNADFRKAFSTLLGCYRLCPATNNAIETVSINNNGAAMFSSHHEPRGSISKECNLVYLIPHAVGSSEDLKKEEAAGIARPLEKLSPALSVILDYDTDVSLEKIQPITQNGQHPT
Chain of Sodium-dependent serotonin transporter (P31645 whole entry): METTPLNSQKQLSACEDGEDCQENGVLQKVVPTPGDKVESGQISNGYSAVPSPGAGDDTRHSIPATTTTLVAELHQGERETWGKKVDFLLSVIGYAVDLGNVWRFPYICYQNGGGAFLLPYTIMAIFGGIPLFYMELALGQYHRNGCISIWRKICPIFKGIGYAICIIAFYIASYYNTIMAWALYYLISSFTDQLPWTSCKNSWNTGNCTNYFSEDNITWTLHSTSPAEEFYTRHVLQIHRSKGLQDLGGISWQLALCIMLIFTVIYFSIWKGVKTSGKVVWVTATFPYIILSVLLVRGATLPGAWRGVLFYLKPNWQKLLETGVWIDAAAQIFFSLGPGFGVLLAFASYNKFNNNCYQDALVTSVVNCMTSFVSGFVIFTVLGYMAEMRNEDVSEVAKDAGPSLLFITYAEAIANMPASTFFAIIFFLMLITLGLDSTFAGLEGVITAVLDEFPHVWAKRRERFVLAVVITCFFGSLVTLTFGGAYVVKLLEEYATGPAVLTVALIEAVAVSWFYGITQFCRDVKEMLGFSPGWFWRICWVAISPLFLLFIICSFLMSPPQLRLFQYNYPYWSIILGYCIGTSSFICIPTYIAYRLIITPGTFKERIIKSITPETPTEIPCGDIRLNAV
Chain of Histamine H3 receptor (Q9Y5N1 whole entry): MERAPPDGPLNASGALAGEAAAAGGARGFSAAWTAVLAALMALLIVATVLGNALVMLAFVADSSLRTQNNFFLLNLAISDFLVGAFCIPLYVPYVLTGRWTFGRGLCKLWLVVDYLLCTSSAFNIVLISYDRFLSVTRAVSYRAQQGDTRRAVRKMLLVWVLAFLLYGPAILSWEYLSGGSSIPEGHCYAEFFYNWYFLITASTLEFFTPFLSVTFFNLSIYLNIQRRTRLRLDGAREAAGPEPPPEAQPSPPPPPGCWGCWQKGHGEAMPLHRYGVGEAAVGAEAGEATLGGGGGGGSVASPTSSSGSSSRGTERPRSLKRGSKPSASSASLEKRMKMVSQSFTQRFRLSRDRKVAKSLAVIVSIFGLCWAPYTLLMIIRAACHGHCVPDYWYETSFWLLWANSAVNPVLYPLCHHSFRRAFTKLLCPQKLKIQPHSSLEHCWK

As to `COc1ccc(CCN2CCC(C(=O)c3cccc(OCCF)c3OC)CC2)cc1`, the Ki in series [1] is 1.44 µM; in series [2], 1.97 µM; in series [3], > 10 µM; in [4] it was > 10 µM; in series [5], 0.153 µM. The log partition coefficient (logP) in the series “physchem” amounted to 3.02.

On to `COc1c(OCCF)cccc1C(=O)C1CCN(CCc2ccc([N+](=O)[O-])cc2)CC1`, for which the inhibition constant Ki was 1.83 µM in series [1]; 1.05 µM in [2]; > 10 µM in [3]; > 10 µM in series [4]; 0.118 µM in series [5]. The same molecule had a log partition coefficient (logP) in “physchem” of 2.71.

Consider `COc1c(OCCF)cccc1C(=O)C1CCN(CCc2ccc(F)cc2)CC1`, for which the inhibition constant (Ki) on D(2) dopamine receptor [6] is 3.83 µM; in series [7], 0.333 µM; in series [1] it was 0.713 µM; in series [2] it was 0.96 µM; in [3], 1.58 µM; in series [4], > 10 µM. Moreover, the inhibitory constant (Ki) was 1.41 µM at D(1A) dopamine receptor; 0.174 µM on D(4) dopamine receptor; 7.4 µM on D(1B) dopamine receptor; > 10 µM in series [8]; 0.944 µM at Histamine H1 receptor; 1.76 µM at Histamine H2 receptor. In addition, the inhibition constant (Ki) on Histamine H3 receptor was > 10 µM; in series [9] it was 0.146 µM; in series [10], 0.55 µM; in series [11], 0.863 µM; in [12], 3.09 µM; in series [13], > 10 µM. Also, the Ki is > 10 µM on Mu-type opioid receptor and 0.00323 µM in [5]. The molecule further yielded a logP in “physchem” of 3.08.

The molecule `COc1c(OCCF)cccc1C(O)C1CCN(CCc2ccccc2)CC1` (configuration not stated) registered a logP in the series “physchem” of 2.92. The molecule also yielded a Ki in series [5] of 0.00163 µM.

In turn, `COc1c(O)cccc1[C@H](O)C1CCN(CCc2ccc(F)cc2)CC1` registered an inhibition constant (Ki) in series [5] of 0.00025 µM. This lies in the sub-nanomolar range.

Take `COc1c(O)cccc1C(O)C1CCN(CCc2ccc([N+](=O)[O-])cc2)CC1` (configuration not stated): the logP in the series “physchem” is 1.9.

For the molecule `COc1ccc(CCN2CCC(C(O)c3cccc(OCCF)c3OC)CC2)cc1` (configuration not stated), the Ki in series [1] was > 10 µM; in series [2] it was 2.75 µM; in series [3], > 10 µM; in series [4] it was > 10 µM; in series [5] it was 0.059 µM. The molecule further registered a logP in the series “physchem” of 2.72.

With `COc1cccc(C(O)C2CCN(Cc3ccc(F)cc3)CC2)c1OC` (configuration not stated), the inhibition constant Ki in [5] is > 1 µM.

For `COc1cccc(C(O)C2CCN(CCc3ccc([N+](=O)[O-])cc3)CC2)c1OC` (configuration not stated), the affinity in series [5], expressed as Ki, was 0.09 µM.

In turn, `COc1c(OCCF)cccc1C(O)C1CCN(C(=O)Cc2ccccc2)CC1` (configuration not stated) showed a logP in “physchem” of 1.57. The molecule further had a Ki in series [5] of 1.99 µM.

In series [5], `COc1cccc(C(O)C2CCN(CCc3ccc(C)cc3)CC2)c1OC` (configuration not stated) gave an inhibitory constant (Ki) of 0.00031 µM. That is a sub-nanomolar value.

`COc1c(OCCF)cccc1C(O)C1CCN(CCc2ccc(N)cc2)CC1` (configuration not stated) registered a Ki in series [5] of 0.00206 µM. This Ki lies about 6.6-fold higher than the previous one.

As for `COc1c(O)cccc1C(=O)C1CCN(CCc2ccc(F)cc2)CC1`, affinity in series [5] was put at a Ki of 0.00134 µM.

As to `COc1c(O)cccc1C(O)C1CCN(CCc2ccc(F)cc2)CC1` (configuration not stated), in “physchem”, the logP amounted to 2.27. In addition, the inhibitory constant (Ki) in [5] came to 0.00124 µM.

On to `COc1ccc(CCN2CCC(C(O)c3cccc(OC)c3OC)CC2)cc1` (configuration not stated), for which the inhibitory constant (Ki) in series [5] worked out at 0.055 µM.

`COc1cccc([C@H](O)C2CCN(CCc3ccc(F)cc3)CC2)c1OC` [VOLINANSERIN] gave a logP in “physchem” of 2.98.

`COc1c(OCCF)cccc1[C@H](O)C1CCN(CCc2ccc(F)cc2)CC1`: the Ki on D(2) dopamine receptor [6] stood at 2.69 µM; in [1], 1.06 µM; in series [2], 0.32 µM; in series [3] it was 6.81 µM; in series [4] it was 3.84 µM; on D(1A) dopamine receptor it was 3.83 µM. Besides, the Ki is 0.442 µM on D(4) dopamine receptor; 7.42 µM at D(1B) dopamine receptor; > 10 µM in [8]; 0.509 µM at Histamine H1 receptor; 2.43 µM on Histamine H2 receptor; > 10 µM at Histamine H3 receptor. In addition, the inhibitory constant (Ki) in series [9] is 0.335 µM; in [10] it was 0.5 µM; in series [11] it was > 10 µM; in series [12] it was 2.21 µM; in series [13], > 10 µM; on Mu-type opioid receptor, > 10 µM. In [5], this molecule displayed a Ki of 0.00072 µM. In the series “physchem”, this molecule displayed a log partition coefficient (logP) of 2.8.

`COc1c(OCCF)cccc1C(O)C1CCN(CCc2ccc(F)cc2)CC1` (configuration not stated): the inhibition constant Ki on D(2) dopamine receptor [6] is > 10 µM; in series [7], 0.148 µM; in [1], 0.706 µM; in [2] it was 0.299 µM; in [3], > 10 µM; in [4], 3.89 µM. Moreover, the inhibitory constant (Ki) at D(1A) dopamine receptor is 0.899 µM; at D(4) dopamine receptor, 0.544 µM; in series [8], > 10 µM; at Histamine H1 receptor it was 0.374 µM; at Histamine H2 receptor it was 3.18 µM; on Histamine H3 receptor it was > 10 µM. Moreover, the inhibition constant Ki in series [10] was 0.325 µM; in [11], > 10 µM; in [12], 3.52 µM; in series [13], > 10 µM; on Mu-type opioid receptor, > 10 µM. The molecule also had a lipophilicity (logP) in “physchem” of 2.8.

On to `COc1c(OCCF)cccc1C(O)C1CCN(CCc2ccc([N+](=O)[O-])cc2)CC1` (configuration not stated), for which the inhibitory constant (Ki) is 3.42 µM in series [1]; 1.84 µM in series [2]; > 10 µM in [3]; > 10 µM in series [4]; 0.026 µM in series [5]. Besides, in “physchem”, the logP was 2.37.

`O=C(c1ccc(F)cc1)C1CCN(CCn2c(=S)[nH]c3ccccc3c2=O)CC1` [ALTANSERIN]: the Ki is 0.00013 µM in series [14], 0.062 µM at D(2) dopamine receptor [15] and 0.00072 µM in [5]. For the same molecule, the logP in the series “physchem” stood at 2.15.
